Data on twelve compounds can be found in US20080090756A1, “Somatostatin agonists” (The Administrators of the Tulane Educational Fund, priority 2001, published 2008).

Usually Kd stands for the free concentration of one partner at which half of the binding sites on the other are occupied at equilibrium, for simple one-to-one binding.

One assay concerns the target T1, hSSTR-1 (Homo sapiens, UniProt P30872).
T1 construct: each containing the entire coding region of the full-length receptors; expressed in transfected cells
Kind of assay: Radioligand binding assay, cloned human somatostatin receptor type 1. To be noted: CHO-K1 cell membranes, displacement of [125I]Tyr11-SRIF; mean ± SEM, single values = one experiment; read-out: Kd ± SEM hsst1. The text has this:
(§1) Functional Expression of the Cloned Human Somatostatin Receptors. The genomic clones containing the human somatostatin receptors (hSSTR-1 to hSSTR-5) (Yamada, Y., et al. al., Proc. Natl. Acad. Sci. USA. 1992, 89, 251-255; Yasuda, K., et al., J. Biol. Chem. 1992, 267, 20422-20428; Yamada, Y., et al., Mol. Pharmacol. 1992, 42, 2136-2142; Rohrer, L., et al., Proc. Natl. Acad. Sci. USA. 1993, 90, 4196-4200.) were kindly provided by Dr. Graeme I. Bell of the University of Chicago. The hSSTR-1, hSSTR-2, hSSTR-3, hSSTR-4 and hSSTR-5 cDNAs were isolated as a 1.5-kb PstI-XmnI fragment, 1.7-kb BamHI-HindIII fragment, 2.0-kb NcoI-HindIII fragment, 1.4-kb NheI-NdeI fragment, and a 1.2-kb HindIII-XbaI fragment, respectively, each containing the entire coding region of the full-length receptors. These fragments were independently subcloned into the corresponding restriction endonuclease sites in the mammalian expression vector pCMV5, downstream from the human cytomegalovirus (CMV) promoter, to produce the expression plasmids pCMV5/hSSTR-1, pCMV5/hSSTR-2, pCMV5/hSSTR-3, pCMV5/hSSTR-4 and pCMV5/hSSTR-5. For transfection into CHO-K1 cells, a plasmid, pRSV-neo (American Type Culture Collection, Rockville, Md.), carrying the neomycin mammalian cell selectable marker was added.
(§2) Receptor Expression and Transfection. Transfections were performed by the calcium phosphate method. CHO-K1 cells were maintained in α-minimum essential medium (α-MEM; Gibco) supplemented with 10% fetal calf serum and transfected with each of the expression plasmids using calcium phosphate precipitation. Clones that had inherited the expression plasmid were selected in α-MEM supplemented with 500 μg mL^−1 of geneticin (G418; Gibco). Independent CHO-K1 clones were picked by glass-ring cloning and expanded in culture in the selective media. Membranes were prepared from the isolated clones and hSSTR expression was initially assessed for binding with [^125I]Tyr^11-SRIF and [^125I]MK-678 (for SSTR-2).
(§3) Radioligand Binding Assays. Cell membranes of the 5 cells types were obtained from homogenates (Polytron setting 6, 15 sec) of the corresponding CHO-K1 cells, in ice-cold Tris-HCl (50 mM) and centrifuged (39000 g, 10 min×2), with an intermediate resuspension in fresh buffer. The final pellets were resuspended in Tris-HCl (10 mM) for assay. Aliquots of the membranes were incubated (30 min at 37° C.) with 0.05 nM [^125I]Tyr^11-SRIF (types 1, 3, 4, 5) or [^125I]MK-678 (type 2) in […] (pH 7.4) containing BSA (10 mg mL^−1); MgCl2 (5 mM), Trasylol (200 kIU mL^−1), bacitracin (0.02 mg mL^−1), and phenylmethanesulfonyl fluoride (0.02 mg mL^−1). The final assay volume was 0.3 mL and incubations were terminated by rapid filtration through GF/C filters pre-soaked in 0.3% poly(ethylenimine) using a Brandel rapid filtration module. Each tube and filter was then washed with aliquots of cold buffer (3×5 mL).
(§4) Specific binding is defined as the total radioligand bound minus that bound in the presence of 1.0 μM SRIF. The following total radioligand binding and non-specific binding (nsb) values were typically obtained with these assay systems: hSSTR-1, 7000 cpm total versus 3500 cpm nsb; hSSTR-2, 9000 cpm total versus 1000 cpm nsb; hSSTR-3, 8000 cpm total versus 1000 cpm nsb; hSSTR-4, 6000 cpm total versus 3500 cpm nsb; and hSSTR-5, 7500 cpm total versus 3500 cpm nsb. The binding affinities are expressed as Ki values ±SEM (nM) for each of the five receptor subtypes. Ki values derived for representative compounds of the instant invention are detailed in Table 2.
(§5) The binding affinities (Kd, nM) of all SRIF analogues were determined using their concentration-dependent displacement of ^125I-radiolabeled peptide ligands from membranes isolated from CHO cells transfected with the corresponding human somatostatin receptor.
In general terms: Loss of bound radioactivity is the signal in a displacement assay; it reports binding, not function.

The next assay addresses T2, hSSTR-3 (Homo sapiens, UniProt P32745).
T2 construct: each containing the entire coding region of the full-length receptors; expressed in transfected cells
As to the kind of experiment: Radioligand binding assay, cloned human somatostatin receptor type 3. Particulars: CHO-K1 cell membranes, displacement of [125I]Tyr11-SRIF; mean ± SEM, single values = one experiment; read-out: Kd ± SEM hsst3.
Description: as §1, §2, §3, §4, §5

Another assay has as its target T3, hSSTR-2 (Homo sapiens, UniProt P30874).
T3 construct: each containing the entire coding region of the full-length receptors; expressed in transfected cells
As to the kind of experiment: Radioligand binding assay, cloned human somatostatin receptor type 2. To be noted: CHO-K1 cell membranes, displacement of [125I]MK-678; mean ± SEM, single values = one experiment; read-out: Kd ± SEM hsst2.
Description: as §1, §2, §3, §4, §5

In the next assay the target is T4, hSSTR-4 (Homo sapiens, UniProt P31391).
T4 construct: each containing the entire coding region of the full-length receptors; expressed in transfected cells
T4 sequence (P31391 whole entry): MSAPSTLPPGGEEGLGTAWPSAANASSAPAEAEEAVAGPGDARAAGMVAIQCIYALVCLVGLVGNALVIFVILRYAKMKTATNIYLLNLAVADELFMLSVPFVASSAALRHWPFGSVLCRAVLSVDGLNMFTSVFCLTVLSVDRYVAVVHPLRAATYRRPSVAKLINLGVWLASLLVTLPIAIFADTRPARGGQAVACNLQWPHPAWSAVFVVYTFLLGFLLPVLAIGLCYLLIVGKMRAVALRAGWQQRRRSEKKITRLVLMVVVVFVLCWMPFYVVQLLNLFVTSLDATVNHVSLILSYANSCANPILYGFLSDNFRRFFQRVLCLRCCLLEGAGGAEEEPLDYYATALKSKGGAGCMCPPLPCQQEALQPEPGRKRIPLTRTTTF
Kind of assay: Radioligand binding assay, cloned human somatostatin receptor type 4. Particulars: CHO-K1 cell membranes, displacement of [125I]Tyr11-SRIF; mean ± SEM, single values = one experiment; read-out: Kd ± SEM hsst4.
Description: as §1, §2, §3, §4, §5

The target in a further assay is T5, hSSTR-5 (Homo sapiens, UniProt P35346).
T5 construct: each containing the entire coding region of the full-length receptors; expressed in transfected cells
T5 sequence (P35346 whole entry): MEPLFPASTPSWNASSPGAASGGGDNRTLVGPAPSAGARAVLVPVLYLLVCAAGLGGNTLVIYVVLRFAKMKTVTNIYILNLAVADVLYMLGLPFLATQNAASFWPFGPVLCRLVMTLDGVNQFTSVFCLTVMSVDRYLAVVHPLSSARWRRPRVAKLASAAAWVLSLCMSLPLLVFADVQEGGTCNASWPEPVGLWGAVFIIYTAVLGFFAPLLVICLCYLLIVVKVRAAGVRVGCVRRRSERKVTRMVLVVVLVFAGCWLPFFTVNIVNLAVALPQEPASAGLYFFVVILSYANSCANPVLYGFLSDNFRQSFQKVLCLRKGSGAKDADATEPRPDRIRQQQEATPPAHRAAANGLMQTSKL
As to the kind of experiment: Radioligand binding assay, cloned human somatostatin receptor type 5. To be noted: CHO-K1 cell membranes, displacement of [125I]Tyr11-SRIF; mean ± SEM, single values = one experiment; read-out: Kd ± SEM hsst5.
Description: as §1, §2, §3, §4, §5

Molecules are shown by their SMILES. Bridge positions count the residues as written; N and C are the ends. Square brackets hold non-standard residues; d marks the D form. Peptide text beside a SMILES is read from it. dNMeW = CN[C@H](Cc1c[nH]c2ccccc12)C(=O)O; NMeY = CN[C@@H](Cc1ccc(O)cc1)C(=O)O; NMeF = CN[C@@H](Cc1ccccc1)C(=O)O; NMeT = CN[C@H](C(=O)O)[C@@H](C)O; NMeK = CN[C@@H](CCCCN)C(=O)O; NMeC = CN[C@@H](CS)C(=O)O

T2 sequence (P32745 whole entry): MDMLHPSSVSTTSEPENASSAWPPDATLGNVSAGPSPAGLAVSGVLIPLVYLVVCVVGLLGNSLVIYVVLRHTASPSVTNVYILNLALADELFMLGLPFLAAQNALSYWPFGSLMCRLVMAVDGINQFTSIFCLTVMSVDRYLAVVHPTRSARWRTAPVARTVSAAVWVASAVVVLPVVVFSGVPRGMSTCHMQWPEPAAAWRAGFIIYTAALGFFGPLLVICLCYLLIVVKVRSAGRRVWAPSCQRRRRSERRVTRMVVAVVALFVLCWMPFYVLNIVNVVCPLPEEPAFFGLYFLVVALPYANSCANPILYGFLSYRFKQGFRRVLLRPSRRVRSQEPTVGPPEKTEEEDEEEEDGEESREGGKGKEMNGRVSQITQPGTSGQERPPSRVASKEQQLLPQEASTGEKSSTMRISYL
T1 sequence (P30872 whole entry): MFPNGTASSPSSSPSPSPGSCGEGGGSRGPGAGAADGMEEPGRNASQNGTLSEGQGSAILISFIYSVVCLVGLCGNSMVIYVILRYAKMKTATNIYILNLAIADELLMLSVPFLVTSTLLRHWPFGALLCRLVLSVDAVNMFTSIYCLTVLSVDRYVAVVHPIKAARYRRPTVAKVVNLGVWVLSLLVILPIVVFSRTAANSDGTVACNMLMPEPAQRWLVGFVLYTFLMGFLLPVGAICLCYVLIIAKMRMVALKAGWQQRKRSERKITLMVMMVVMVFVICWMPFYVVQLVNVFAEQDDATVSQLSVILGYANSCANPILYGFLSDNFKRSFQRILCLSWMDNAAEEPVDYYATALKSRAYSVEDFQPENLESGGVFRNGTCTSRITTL
T3 sequence (P30874 whole entry): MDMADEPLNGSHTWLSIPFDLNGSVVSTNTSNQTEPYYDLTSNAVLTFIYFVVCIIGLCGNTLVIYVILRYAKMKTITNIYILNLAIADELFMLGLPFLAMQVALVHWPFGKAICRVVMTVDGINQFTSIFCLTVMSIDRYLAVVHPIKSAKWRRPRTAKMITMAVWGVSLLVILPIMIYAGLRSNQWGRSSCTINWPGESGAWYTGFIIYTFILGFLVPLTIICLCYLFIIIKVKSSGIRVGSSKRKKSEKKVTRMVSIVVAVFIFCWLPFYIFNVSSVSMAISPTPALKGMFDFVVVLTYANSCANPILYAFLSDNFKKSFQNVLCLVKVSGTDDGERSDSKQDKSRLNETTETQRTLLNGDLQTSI

`C[C@@H](O)[C@H](NC(=O)[C@@H]1CSSC[C@H](NC(=O)[C@H](N)Cc2ccccc2)C(=O)N(C)[C@@H](Cc2ccccc2)C(=O)N[C@H](Cc2c[nH]c3ccccc23)C(=O)N[C@@H](CCCCN)C(=O)N[C@@H]([C@@H](C)O)C(=O)N1)C(N)=O` [Example 3, DPhe-cyclo(Cys-NMePhe-DTrp-Lys-Thr-Cys)-Thr-NH2]: the Kd on hSSTR-1 is > 1000 nM; at hSSTR-3, 830 ± 86 nM; on hSSTR-2, 13.2 ± 3.85 nM; on hSSTR-4, > 1000 nM.
Turning to `C[C@@H](O)[C@H](NC(=O)[C@@H]1CSSC[C@H](NC(=O)[C@H](N)Cc2ccccc2)C(=O)N[C@@H](Cc2ccccc2)C(=O)N[C@H](Cc2c[nH]c3ccccc23)C(=O)N(C)[C@@H](CCCCN)C(=O)N[C@@H]([C@@H](C)O)C(=O)N1)C(N)=O` [Example 5, DPhe-cyclo(Cys-Phe-DTrp-NMeLys-Thr-Cys)-Thr-NH2], the Kd on hSSTR-2 was 1.84 ± 0.21 nM; at hSSTR-4, > 1000 nM.
For the compound `C[C@@H](O)[C@@H]1NC(=O)[C@H](CCCCN)NC(=O)[C@@H](Cc2c[nH]c3ccccc23)NC(=O)[C@H](Cc2ccccc2)NC(=O)[C@@H](NC(=O)[C@H](N)Cc2ccccc2)CSSC[C@@H](C(=O)N(C)[C@H](C(N)=O)[C@@H](C)O)NC1=O` [Example 8, DPhe-cyclo(Cys-Phe-DTrp-Lys-Thr-Cys)-NMeThr-NH2], the Kd at hSSTR-1 was > 1000 nM; at hSSTR-3 it was 124 ± 11.7 nM; at hSSTR-2 it was 14.8 ± 1.53 nM; on hSSTR-4, 182 nM.
Consider `C[C@@H](O)[C@H](NC(=O)[C@@H]1CSSC[C@H](NC(=O)[C@H](N)Cc2ccccc2)C(=O)N[C@@H](Cc2ccccc2)C(=O)N[C@H](Cc2c[nH]c3ccccc23)C(=O)N[C@@H](CCCCN)C(=O)N[C@@H]([C@@H](C)O)C(=O)N1)C(N)=O` [Example 9, DPhe-cyclo(Cys-Phe-DTrp-Lys-Thr-Cys)-Thr-NH2], for which the Kd at hSSTR-1 is 761 nM; at hSSTR-3, 11.8 ± 0.9 nM; on hSSTR-2, 0.15 ± 0.08 nM; on hSSTR-4 it was > 1000 nM.
For the compound `CN[C@@H](Cc1ccc(O)cc1)C(=O)N[C@H]1CSSC[C@@H](C(=O)N[C@H](C(N)=O)[C@@H](C)O)NC(=O)[C@H]([C@@H](C)O)NC(=O)[C@H](CCCCN)NC(=O)[C@@H](Cc2c[nH]c3ccccc23)NC(=O)[C@H](Cc2ccccc2)NC1=O` [Example 10, NMeTyr-cyclo(Cys-Phe-DTrp-Lys-Thr-Cys)-Thr-NH2] (H-[NMeY]CF[dW]KTCT-NH2; disulfide 2-7; N-terminus assumed), the values for the Kd on hSSTR-1 and on hSSTR-2 were 811 ± 188 nM and 9.74 ± 1.87 nM, respectively.
Turning to `C[C@@H](O)[C@H](NC(=O)[C@@H]1CSSC[C@H](N(C)C(=O)[C@@H](N)Cc2ccc(O)cc2)C(=O)N[C@@H](Cc2ccccc2)C(=O)N[C@H](Cc2c[nH]c3ccccc23)C(=O)N[C@@H](CCCCN)C(=O)N[C@@H]([C@@H](C)O)C(=O)N1)C(N)=O` [Example 11, Tyr-cyclo(NMeCys-Phe-DTrp-Lys-Thr-Cys)-Thr-NH2] (H-Y[NMeC]F[dW]KTCT-NH2; disulfide 2-7; N-terminus assumed), the Kd came out at 114 nM at hSSTR-5, 2.73 ± 2.43 nM at hSSTR-3 and 8.96 ± 1.66 nM on hSSTR-2.
As to `C[C@@H](O)[C@H](NC(=O)[C@@H]1CSSC[C@H](NC(=O)[C@@H](N)Cc2ccc(O)cc2)C(=O)N(C)[C@@H](Cc2ccccc2)C(=O)N[C@H](Cc2c[nH]c3ccccc23)C(=O)N[C@@H](CCCCN)C(=O)N[C@@H]([C@@H](C)O)C(=O)N1)C(N)=O` [Example 12, Tyr-cyclo(Cys-NMePhe-DTrp-Lys-Thr-Cys)-Thr-NH2] (H-YC[NMeF][dW]KTCT-NH2; disulfide 2-7; N-terminus assumed), the Kd was 653 ± 245 nM on hSSTR-1 and 94.2 ± 16.7 nM on hSSTR-3.
For the compound `C[C@@H](O)[C@H](NC(=O)[C@@H]1CSSC[C@H](NC(=O)[C@@H](N)Cc2ccc(O)cc2)C(=O)N[C@@H](Cc2ccccc2)C(=O)N(C)[C@H](Cc2c[nH]c3ccccc23)C(=O)N[C@@H](CCCCN)C(=O)N[C@@H]([C@@H](C)O)C(=O)N1)C(N)=O` [Example 13, Tyr-cyclo(Cys-Phe-NMeDTrp-Lys-Thr-Cys)-Thr-NH2] (H-YCF[dNMeW]KTCT-NH2; disulfide 2-7; N-terminus assumed), the Kd came to 1000 nM at hSSTR-1 and 120 ± 22.2 nM on hSSTR-2.
As to `C[C@@H](O)[C@H](NC(=O)[C@@H]1CSSC[C@H](NC(=O)[C@@H](N)Cc2ccc(O)cc2)C(=O)N[C@@H](Cc2ccccc2)C(=O)N[C@H](Cc2c[nH]c3ccccc23)C(=O)N(C)[C@@H](CCCCN)C(=O)N[C@@H]([C@@H](C)O)C(=O)N1)C(N)=O` [Example 14, Tyr-cyclo(Cys-Phe-DTrp-NMeLys-Thr-Cys)-Thr-NH2] (H-YCF[dW][NMeK]TCT-NH2; disulfide 2-7; N-terminus assumed), the Kd at hSSTR-1 was determined as 956 ± 43 nM; at hSSTR-3, 51 ± 6.93 nM; on hSSTR-2, 14.2 ± 3.12 nM.
With `C[C@@H](O)[C@H](NC(=O)[C@@H]1CSSC[C@H](NC(=O)[C@@H](N)Cc2ccc(O)cc2)C(=O)N[C@@H](Cc2ccccc2)C(=O)N[C@H](Cc2c[nH]c3ccccc23)C(=O)N[C@@H](CCCCN)C(=O)N[C@@H]([C@@H](C)O)C(=O)N1C)C(N)=O` [Example 16, Tyr-cyclo(Cys-Phe-DTrp-Lys-Thr-NMeCys)-Thr-NH2] (H-YCF[dW]KT[NMeC]T-NH2; disulfide 2-7; N-terminus assumed), the results for the Kd at hSSTR-1 and on hSSTR-4 were 1260 nM and 321 nM, respectively.
Take `C[C@@H](O)[C@@H]1NC(=O)[C@H](CCCCN)NC(=O)[C@@H](Cc2c[nH]c3ccccc23)NC(=O)[C@H](Cc2ccccc2)NC(=O)[C@@H](NC(=O)[C@@H](N)Cc2ccc(O)cc2)CSSC[C@@H](C(=O)N(C)[C@H](C(N)=O)[C@@H](C)O)NC1=O` [Example 17, Tyr-cyclo(Cys-Phe-DTrp-Lys-Thr-Cys)-NMeThr-NH2] (H-YCF[dW]KTC[NMeT]-NH2; disulfide 2-7; N-terminus assumed): the Kd was 611 ± 3.5 nM on hSSTR-1, 535 ± 200 nM at hSSTR-3, 26.2 ± 10.3 nM at hSSTR-2 and 353 nM on hSSTR-4.
As for `C[C@@H](O)[C@H](NC(=O)[C@@H]1CSSC[C@H](NC(=O)[C@@H](N)Cc2ccc(O)cc2)C(=O)N[C@@H](Cc2ccccc2)C(=O)N[C@H](Cc2c[nH]c3ccccc23)C(=O)N[C@@H](CCCCN)C(=O)N[C@@H]([C@@H](C)O)C(=O)N1)C(N)=O` [Example 18, Tyr-cyclo(Cys-Phe-DTrp-Lys-Thr-Cys)-Thr-NH2] (H-YCF[dW]KTCT-NH2; disulfide 2-7; N-terminus assumed), the values for the Kd at hSSTR-1, on hSSTR-3 and on hSSTR-2 were 1000 nM, 18.2 ± 4.21 nM and 10.3 ± 3.53 nM, respectively.
